The experiment has as its system a variety of test species. In words: Post-emergence herbicidal activity. Format: in vivo. Also noted: key to ABUTH (Abutilon theophrasti) damage score / AMARE (Amaranthus retroflexus) damage score / ALOMY (Alopecurus myosuroides) damage score / ECHCG (Echinochloa crus-galli) damage score / ZEAMX (Zea mays) damage score / SOLNI (Solanum nigrum) damage score: 0 = no damage to plant, 5 = total damage to plant. Conditions: rate 1000 g/ha, evaluated after 13 days. On the procedure:
Seeds of a variety of test species were sown in standard soil in pots. After 8 days cultivation (post-emergence) under controlled conditions in a glasshouse (at 24/16° C., day/night; 14 hours light; 65% humidity), the plants were sprayed with an aqueous spray solution derived from the formulation of the technical active ingredient in acetone/water (50:50) solution containing 0.5% Tween 20 (polyoxyethelyene sorbitan monolaurate, CAS RN 9005-64-5). The test plants were then grown in a glasshouse under controlled conditions (at 24/16° C., day/night; 14 hours light; 65% humidity) and watered twice daily. After 13 days, the test was evaluated (5=total damage to plant; 0=no damage to plant, NC=not captured).
With `CC1=C(Cl)C(O)N(c2cc(C)c(Br)cn2)C1=O` (stereo not drawn) [AA10], the “ABUTH (Abutilon theophrasti) damage score” value (from here on “ABUTH”) amounted to 0, the “ALOMY (Alopecurus myosuroides) damage score” value (“ALOMY” below) turned out to be 1, the “AMARE (Amaranthus retroflexus) damage score” value (“AMARE” below) amounted to 3 and the “ECHCG (Echinochloa crus-galli) damage score” value (“ECHCG” below) worked out at 1. For the same compound, the “SETFA (Setaria faberi) damage score” value came to 2 and the “ZEAMX (Zea mays) damage score” value is 1.

As to `CC1=C(Cl)C(O)N(c2cc(C)ccn2)C1=O` (stereo not drawn) [AA13], the “ABUTH” value was found to be 5, the “ALOMY” value is on record as 3, the “AMARE” value was determined as 4 and the “ECHCG” value turned out to be 4. Moreover, the “SETFA (Setaria faberi) damage score” value turned out to be 4 and the “ZEAMX (Zea mays) damage score” value was 0.

`CC1=C(Cl)C(O)N(c2cc(Cl)c(Cl)cn2)C1=O` (stereo not drawn) [AA16]: the “ABUTH” value is given as 0, the “ALOMY” value amounted to 1, the “AMARE” value worked out at 0 and the “ECHCG” value was 1. For the same compound, the “SETFA (Setaria faberi) damage score” value is recorded as 3 and the “ZEAMX (Zea mays) damage score” value amounted to 1.

As for `CC1=C(Cl)C(O)N(c2cc(C#N)ccn2)C1=O` (stereo not drawn) [AA20], the “ABUTH” value came to 1, the “ALOMY” value is on record as 1, the “AMARE” value amounted to 0 and the “ECHCG” value amounted to 1. Besides, the “SETFA (Setaria faberi) damage score” value is listed as 1 and the “ZEAMX (Zea mays) damage score” value is listed as 0.

As for `CC1=C(Cl)C(O)N(c2cc(C(F)(F)F)c(Br)cn2)C1=O` (stereo not drawn) [AA25, 1-[5-bromo-4-(trifluoromethyl)-2-pyridyl]-3-chloro-2-hydroxy-4-methyl-2H-pyrrol-5-one], the “ABUTH” value came out at 1, the “ALOMY” value is 2, the “AMARE” value is recorded as 5 and the “ECHCG” value was found to be 3. Further, the “SETFA (Setaria faberi) damage score” value is reported as 3 and the “ZEAMX (Zea mays) damage score” value is listed as 1.

Take `CC1=C(Cl)C(O)N(c2cc(C(F)(F)F)c(Cl)cn2)C1=O` (stereo not drawn) [AA26]: the “ABUTH” value turned out to be 1, the “ALOMY” value was found to be 2, the “AMARE” value came out at 5 and the “ECHCG” value was determined as 3. Also, the “SETFA (Setaria faberi) damage score” value worked out at 3 and the “ZEAMX (Zea mays) damage score” value stood at 0.

`CC1=C(Cl)C(O)N(c2cc(Br)ccn2)C1=O` (stereo not drawn) [AA31]: the “ALOMY” value is reported as 1, the “AMARE” value was 5, the “ECHCG” value was 2 and the “SETFA (Setaria faberi) damage score” value turned out to be 3. The “SOLNI (Solanum nigrum) damage score” value is recorded as 5 and the “ZEAMX (Zea mays) damage score” value was 0.

As to `CC1=C(Cl)C(O)N(c2ccc(Cl)cn2)C1=O` (stereo not drawn) [AA32], the “ALOMY” value is on record as 0, the “AMARE” value is given as 0, the “ECHCG” value was determined as 0 and the “SETFA (Setaria faberi) damage score” value amounted to 2. For the same compound, the “SOLNI (Solanum nigrum) damage score” value is given as 2 and the “ZEAMX (Zea mays) damage score” value is 0.

`CC1=C(Cl)C(O)N(c2cc(Cl)ccn2)C1=O` (stereo not drawn) [AA33]: the “ALOMY” value was found to be 1, the “AMARE” value is given as 5, the “ECHCG” value is on record as 2 and the “SETFA (Setaria faberi) damage score” value amounted to 3. Also, the “SOLNI (Solanum nigrum) damage score” value amounted to 5 and the “ZEAMX (Zea mays) damage score” value is listed as 0.

Take `CC1=C(Cl)C(O)N(c2cc(C(F)(F)F)ccn2)C1=O` (stereo not drawn) [AA35]: the “ALOMY” value amounted to 2, the “AMARE” value is 5, the “ECHCG” value was 4 and the “SETFA (Setaria faberi) damage score” value came to 4. The “SOLNI (Solanum nigrum) damage score” value came out at 5 and the “ZEAMX (Zea mays) damage score” value amounted to 0.

As to `CC1=C(Cl)C(O)N(c2ccc(C)cn2)C1=O` (stereo not drawn) [AA36], the “ALOMY” value was 1, the “AMARE” value was found to be 4, the “ECHCG” value is 2 and the “SETFA (Setaria faberi) damage score” value is listed as 1. Moreover, the “SOLNI (Solanum nigrum) damage score” value was determined as 3 and the “ZEAMX (Zea mays) damage score” value was found to be 0.

In the case of `CC1=C(Cl)C(O)N(c2ccc(OC(F)(F)F)cn2)C1=O` (stereo not drawn) [AA38], the “ABUTH” value stood at 1, the “ALOMY” value came out at 1, the “AMARE” value was found to be 4 and the “ECHCG” value turned out to be 1. Also, the “SETFA (Setaria faberi) damage score” value is 1 and the “ZEAMX (Zea mays) damage score” value is 0.

Consider `CCCC1=C(Cl)C(O)N(c2cc(C(F)(F)F)ccn2)C1=O` (stereo not drawn) [AA40], for which the “ABUTH” value is reported as 2, the “ALOMY” value is recorded as 2, the “AMARE” value came to 4 and the “ECHCG” value was found to be 4. In addition, the “SETFA (Setaria faberi) damage score” value amounted to 1 and the “ZEAMX (Zea mays) damage score” value is reported as 1.

Take `CC(C)(C)C1=C(Cl)C(O)N(c2cc(C(F)(F)F)ccn2)C1=O` (stereo not drawn) [AA41]: the “ABUTH” value worked out at 0, the “ALOMY” value is on record as 0, the “AMARE” value came out at 0 and the “ECHCG” value was 3. Also, the “SETFA (Setaria faberi) damage score” value turned out to be 0 and the “ZEAMX (Zea mays) damage score” value was 2.

In the case of `CC(C)C1=C(Cl)C(O)N(c2cc(C(F)(F)F)ccn2)C1=O` (stereo not drawn) [AA42], the “ABUTH” value was 3, the “ALOMY” value is listed as 1, the “AMARE” value turned out to be 3 and the “ECHCG” value is reported as 0. Besides, the “SETFA (Setaria faberi) damage score” value is on record as 0 and the “ZEAMX (Zea mays) damage score” value was found to be 1.

With `CCC1=C(Cl)C(O)N(c2cc(C(F)(F)F)ccn2)C1=O` (stereo not drawn) [AA43], the “ABUTH” value came to 2, the “ALOMY” value is 1, the “AMARE” value was found to be 2 and the “ECHCG” value amounted to 5. Moreover, the “SETFA (Setaria faberi) damage score” value came to 3 and the “ZEAMX (Zea mays) damage score” value worked out at 1.

`CC1=C(Cl)C(O)N(c2cc(C(C)(C)C)ccn2)C1=O` (stereo not drawn) [AA44]: the “ABUTH” value came to 1, the “ALOMY” value came out at 1, the “AMARE” value was 3 and the “ECHCG” value came to 1. In addition, the “SETFA (Setaria faberi) damage score” value is 2 and the “ZEAMX (Zea mays) damage score” value was 1.

In the case of `CC1=C(Cl)C(O)N(c2cc(C(F)(F)F)c(C(=O)OC(C)(C)C)cn2)C1=O` (stereo not drawn) [AA45], the “ABUTH” value is 2, the “ALOMY” value stood at 2, the “AMARE” value was 3 and the “ECHCG” value stood at 1. Also, the “SETFA (Setaria faberi) damage score” value came to 2 and the “ZEAMX (Zea mays) damage score” value came out at 1.
